Here are results for nine molecules from patent US12398154B2, “Azaquinazoline pan-KRas inhibitors” (Mirati Therapeutics, Inc., priority 2020, dated 2025).

Some results are limits rather than exact numbers.

The test system of test [1] is pERK in PSN1 cells. As to the kind of experiment: Inhibition of KRas phosphorylation of ERK (Cisbio HTRF pERK assay). Particulars: Homo sapiens, PSN1, 3 h, read-out: Inhibition (HTRF IC50) of KRas-mediated Phosphorylation of ERK, PSN1. (In general: In TR-FRET formats the signal depends on donor and acceptor labels being close together.)
Test [2] addresses KRas G12D (Homo sapiens, UniProt P01116, G12D). As to the kind of experiment: biochemical.
Procedure: (§5) The ability of a compound to bind to KRas was measured using a TR-FRET displacement assay. […] After a 60-minute incubation at room temperature, the reaction was measured using a BMG LABTECH CLARIO star Plus via TR-FRET. […] The POC values were fit to a 4-parameter IC50 equation and the IC50 value reported.
Test [3] concerns phospho-ERK in AsPC-1 (G12D) cells. As to the kind of experiment: Inhibition of KRas-mediated phosphorylation of ERK (in-cell western). Conditions: Homo sapiens, ASPC1, 3 h, 3 hours compound, phospho-ERK normalized to GAPDH. Type of test: cell-based. As to the method: (§1) Diluted compounds were then added in a final concentration of 0.5% DMSO. After 3 hours, 50 μL of 4.0% formaldehyde was added and the plates incubated at room temperature for 20 minutes. The plates were then dumped and permeabilized with 150 μL of ice cold 100% methanol for 10 minutes.
(§2) The amount of phospho-ERK was determined using an antibody specific for the phosphorylated form of ERK and compared to the amount of GAPDH. […] The plates were incubated overnight at 4° C. The plates were washed 3× with 150 uL PBS+0.1% Tween 20.
(§3) The plates were washed 3× with 150 uL PBS+0.1% Tween 20. Plates were imaged dry on a Li-COR Odyssey CLX plate reader.
(§4) The phospho-ERK (Thr202/Tyr204) signal was normalized to the GAPDH signal for each well and percent of DMSO control values were calculated. IC50 values were generated using a 4-parameter fit of the dose response curve.

The target in test [4] is KRas G12R (Homo sapiens, UniProt P01116, G12R). Description: biochemical.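 Further: TR-FRET displacement assay of compound binding to KRas, read after one hour at room temperature, potency from a four-parameter fit of percent-of-control values.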
Procedure: as §5
Test [5] deals with pERK in MKN1 cells. Description: Inhibition of KRas phosphorylation of ERK (Cisbio HTRF pERK assay). Conditions: Homo sapiens, MKN-1, 3 h, read-out: Inhibition (HTRF IC50) of KRas-mediated Phosphorylation of ERK, MKN1.
Test [6] deals with KRas G12V (Homo sapiens, UniProt P01116, G12V). As to the kind of experiment: biochemical.
Procedure: as §5
For test [7], the system named is phospho-ERK in NCI-H727 (G12V) cells. Description: Inhibition of KRas-mediated phosphorylation of ERK (in-cell western). Type of test: cell-based. Conditions: Homo sapiens, NCI-H727, 3 h, 3 hours compound, phospho-ERK normalized to GAPDH. As to the method: as §1, §2, §3, §4
Test [8] relates to phospho-ERK in NCI-H460 (Q61H) cells. The test is described as above. Particulars: Homo sapiens, NCI-H460, 3 h, 3 hours compound, phospho-ERK normalized to GAPDH. Type of test: cell-based. The procedure: as §1, §2, §3, §4
The target of test [9] is KRas G12A (Homo sapiens, UniProt P01116, G12A). Description: biochemical.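 Further: binding to KRas measured by TR-FRET displacement after one hour at room temperature, IC50 from a four-parameter fit of percent-of-control values.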
Procedure: as §5
Test [10] concerns pERK in H460 cells. As to the kind of experiment: Inhibition of KRas phosphorylation of ERK (Cisbio HTRF pERK assay). Particulars: Homo sapiens, NCI-H460, read-out: Inhibition (HTRF IC50) of KRas-mediated Phosphorylation of ERK, H460.
In test [11] the test system is pERK in H727 cells. Described as above. Particulars: Homo sapiens, NCI-H727, read-out: Inhibition (HTRF IC50) of KRas-mediated Phosphorylation of ERK, H727.
In test [12] the target is KRas WT (Homo sapiens, UniProt P01116). As to the kind of experiment: biochemical.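 Further: binding to KRas read as TR-FRET displacement after a one-hour room-temperature incubation, IC50 derived from percent-of-control values.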
Procedure: as §5
The subject of test [13] is pERK in HCT116 cells. Description: Inhibition of KRas phosphorylation of ERK (Cisbio HTRF pERK assay). Particulars: Homo sapiens, HCT-116, read-out: Inhibition (HTRF IC50) of KRas-mediated Phosphorylation of ERK, HCT116.
Procedure: (§6) To harvest cells from flask using 0.05% Trypsin/EDTA solution. Add 10 mL of media to stop trypsinizing. Pipette the cells into a conical bottom 50 mL centrifuge tube and centrifuge 5 min×1000 rpm. • 2. Re-suspend the cell pellet in media, take a cell count, and then adjust the cell density using fresh media. • 3. Seed 6,000 cells into cell culture plate with 50 μL media. […] Incubate cell plate overnight in a 37° C., 5% CO2 incubator. • Compound titrations • 1. Use Tecan to complete the compound addition. Compounds start from 10 uM top, 3-fold dilution, and 10 doses. The final DMSO concentration is 0.8%. Dispensed 0.2 uM Trametinib as Min control. • 2. Incubate cell plate for 3 hrs in the incubator. • Detection with cisbio pERK HTRF kit • 1. […] At the end of the compound treatment, flick-off the media. • 3. Add 35 μL of lysis buffer per well using a Multidrop Combi. Then place on a plate agitator shaking at 300 rpm at 4° C. for 40 mins. • 4. Make up the HTRF antibody buffer. For each assay plate, mix 50 μL of d2-conjugate antibody with 950 μL of detection buffer. Similarly, mix 50 μL of Cryptate antibody with 950 μL of detection buffer. Then mix the two diluted antibodies together. • 5. Dispense 3.4 μL the antibody buffer to wells of an empty assay plate. Seal the plate and centrifuge plate 30 sec×1000 rpm. • 6. At the end of the 4° C. lysis, centrifuge the lysate plates 3 mins×1500 rpm. • 7. Use the Bravo to transfer 13.6 μL of lysate from cell culture plate to assay plate.
(§7) Then incubate assay plate for 2 hrs at room temperature. […] At the end of incubation, read plate on the Envision after centrifuging plate 30 sec× • 1000 rpm.
Test [14] addresses KRas G12S (Homo sapiens, UniProt P01116, G12S). Description: biochemical.
Procedure: as §5
Test [15] deals with KRas G12C (Homo sapiens, UniProt P01116, G12C). Description: biochemical.
Procedure: as §5
The subject of test [16] is pERK in ASPC1 cells. As to the kind of experiment: Inhibition of KRas phosphorylation of ERK (Cisbio HTRF pERK assay). Conditions: Homo sapiens, ASPC1, read-out: Inhibition (HTRF IC50) of KRas-mediated Phosphorylation of ERK, AsPC-1.
Procedure: as §6, §7

Sequence of KRas WT (P01116 1-169 isoform P01116-2): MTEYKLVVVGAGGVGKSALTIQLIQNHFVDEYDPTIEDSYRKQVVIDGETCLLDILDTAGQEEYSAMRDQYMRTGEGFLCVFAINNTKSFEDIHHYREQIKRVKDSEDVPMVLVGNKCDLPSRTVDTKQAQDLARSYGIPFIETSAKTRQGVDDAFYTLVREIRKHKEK
Sequence of KRas G12V (P01116 1-169 isoform P01116-2 G12V): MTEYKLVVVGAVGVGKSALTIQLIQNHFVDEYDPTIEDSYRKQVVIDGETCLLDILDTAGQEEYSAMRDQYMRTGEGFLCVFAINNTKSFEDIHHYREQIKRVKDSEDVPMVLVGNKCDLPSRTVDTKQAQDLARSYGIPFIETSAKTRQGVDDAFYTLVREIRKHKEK
Sequence of KRas G12S (P01116 1-169 isoform P01116-2 G12S): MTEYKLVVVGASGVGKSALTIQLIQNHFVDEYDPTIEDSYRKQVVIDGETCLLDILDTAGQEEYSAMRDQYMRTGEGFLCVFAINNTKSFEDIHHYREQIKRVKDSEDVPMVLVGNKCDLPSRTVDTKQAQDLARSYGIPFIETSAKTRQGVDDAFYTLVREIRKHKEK
Sequence of KRas G12A (P01116 1-169 isoform P01116-2 G12A): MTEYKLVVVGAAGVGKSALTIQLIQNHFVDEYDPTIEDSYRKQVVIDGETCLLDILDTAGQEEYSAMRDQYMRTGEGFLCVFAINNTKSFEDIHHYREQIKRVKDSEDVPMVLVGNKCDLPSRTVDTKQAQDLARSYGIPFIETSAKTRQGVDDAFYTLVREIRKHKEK
Sequence of KRas G12R (P01116 1-169 isoform P01116-2 G12R): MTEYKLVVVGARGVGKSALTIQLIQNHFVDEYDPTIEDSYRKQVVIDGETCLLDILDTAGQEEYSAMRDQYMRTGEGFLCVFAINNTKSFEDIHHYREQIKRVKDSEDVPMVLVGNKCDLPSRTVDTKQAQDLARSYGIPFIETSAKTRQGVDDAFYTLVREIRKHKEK
Sequence of KRas G12C (P01116 1-169 isoform P01116-2 G12C): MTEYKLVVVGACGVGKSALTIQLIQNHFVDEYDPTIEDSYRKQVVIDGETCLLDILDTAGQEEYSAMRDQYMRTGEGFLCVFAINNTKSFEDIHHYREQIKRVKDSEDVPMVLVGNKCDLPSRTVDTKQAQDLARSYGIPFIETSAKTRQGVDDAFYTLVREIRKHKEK
Sequence of KRas G12D (P01116 1-169 isoform P01116-2 G12D): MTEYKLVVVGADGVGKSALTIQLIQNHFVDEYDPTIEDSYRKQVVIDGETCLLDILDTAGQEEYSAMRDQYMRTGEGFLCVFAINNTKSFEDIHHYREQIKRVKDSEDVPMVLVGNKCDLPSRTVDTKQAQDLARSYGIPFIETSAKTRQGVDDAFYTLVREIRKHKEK

Take `C#Cc1c(F)ccc2cc(O)cc(-c3ncc4c(N5CCC[C@](C)(O)C5)nc(OC[C@@]56CCCN5C[C@H](F)C6)nc4c3F)c12` [Example 10]: the IC50 (in general, the point on the concentration scale where inhibition reaches its midpoint) in test [1] was 3340 nM; in [2], at most 2 nM; in [3] it was 297 nM; in [4], 3 nM; in test [5] it was 13 nM; in test [6], at most 2 nM.
As for `CCc1c(F)ccc2cc(O)cc(-c3ncc4c(N5CCC[C@@](C)(O)C5)nc(OC[C@@H]5C[C@@H](OC(=O)NC)CN5C)nc4c3F)c12` [Example 12, (3R,5S)-5-(((7-(8-ethyl-7-fluoro-3-hydroxy)naphthalen-1-yl)-8-fluoro-4-((R)-3-hydroxy-3-methylpiperidin-1-yl)pyrido[4,3-d]pyrimidin-2-yl)oxy)methyl)-1-methylpyrrolidin-3-yl methylcarbamate], the IC50 is at least 10000 nM in [1]; 3 nM in test [2]; 497 nM in [3]; 4 nM in test [4]; 26 nM in test [5]; 3 nM in test [6].
As for `CCc1c(F)ccc2cc(O)cc(-c3ncc4c(N5CCC[C@@]6(CNC(=O)C6)C5)nc(OC[C@]56CCCN5C[C@@H](O)C6)nc4c3F)c12` [Example 305, (R)-7-(7-(8-ethyl-7-fluoro-3-hydroxynaphthalen-1-yl)-8-fluoro-2-(((2S,7aR)-2-hydroxytetrahydro-1H-pyrrolizin-7a(5H)-yl)methoxy)pyrido[4,3-d]pyrimidin-4-yl)-2,7-diazaspiro[4.5]decan-3-one], the IC50 in test [2] was 25 nM; in test [7], at least 10000 nM; in test [8] it was at least 10000 nM; in test [3] it was at least 10000 nM; in test [4], 14 nM; in test [6], 6 nM.
With `CCc1c(F)ccc2cc(O)cc(-c3ncc4c(N5CCCC6(CC(=O)NC6=O)C5)nc(OC[C@@]56CCCN5C[C@H](F)C6)nc4c3F)c12` (stereo partly drawn) [Example 318, 7-(7-(8-ethyl-7-fluoro-3-hydroxynaphthalen-1-yl)-8-fluoro-2-(((2R,7aS)-2-fluorohexahydro-1H-pyrrolizin-7a-yl)methoxy)pyrido[4,3-d]pyrimidin-4-yl)-2,7-diazaspiro[4.5]decane-1,3-dione], the IC50 in test [9] was at most 2 nM; in test [1], 877 nM; in test [10] it was 65 nM; in test [2] it was at most 2 nM; in test [11] it was 69 nM; in [4] it was at most 2 nM. The IC50 is at most 2 nM in [12]; 60 nM in test [13]; 13 nM in test [5]; at most 2 nM in test [14]; at most 2 nM in test [15]; 133 nM in test [16]. The same molecule returned an IC50 in [6] of at most 2 nM.
For `CCc1c(F)ccc2cc(O)cc(-c3ncc4c(N5C[C@@H]6C[C@H](C5)[C@H](O)C6)nc(OCC5(CN6CCCC6)CC5)nc4c3F)c12` [Example 320, (1R,5R,6R)-3-(7-(8-ethyl-7-fluoro-3-hydroxynaphthalen-1-yl)-8-fluoro-2-((1-(pyrrolidin-1-ylmethyl)cyclopropyl)methoxy)pyrido[4,3-d]pyrimidin-4-yl)-3-azabicyclo[3,2,1]octan-6-ol], the IC50 is at most 2 nM in test [9]; 5180 nM in [1]; 100 nM in test [10]; 3 nM in test [2]; 82 nM in test [11]; 3 nM in [4]. Besides, the IC50 in [12] was at most 2 nM; in test [13] it was 65 nM; in test [5], 10 nM; in test [14] it was at most 2 nM; in test [15] it was at most 2 nM; in [16], 115 nM. In test [6], this molecule showed a 50% inhibitory concentration (IC50) of at most 2 nM.
In the case of `O=S1(=O)NCC2(CCCN(c3nc(OC[C@@]45CCCN4C[C@H](F)C5)nc4c(F)c(-c5cc(O)cc6ccc(F)c(Cl)c56)ncc34)C2)N1` (stereo partly drawn) [Example 417, 7-(7-(8-chloro-7-fluoro-3-hydroxynaphthalen-1-yl)-8-fluoro-2-(((2R,7aS)-2-fluorohexahydro-1H-pyrrolizin-7a-yl)methoxy)pyrido[4,3-d]pyrimidin-4-yl)-2-thia-1,3,7-triazaspiro[4.5]decan 2,2-dioxide], the IC50 is 110 nM in [1]; 63 nM in [10]; at most 2 nM in test [2]; 57 nM in test [11]; at most 2 nM in test [4]; at most 2 nM in test [12]. Further, the IC50 was 79 nM in [13]; 20 nM in [5]; at most 2 nM in test [15]; 182 nM in test [16]; at most 2 nM in [6].
For `OCC1COCCN(c2nc(OCC34CCCN3CCC4)nc3c(F)c(-c4cc(O)cc5ccc(F)c(F)c45)ncc23)C1` (stereo not drawn) [Example 457, 5,6-difluoro-4-(8-fluoro-2-((hexahydro-1H-pyrrolizin-7a-yl)methoxy)-4-(6-(hydroxymethyl)-1,4-oxazepan-4-yl)pyrido[4,3-d]pyrimidin-7-yl)naphthalen-2-ol], the IC50 turned out to be 31 nM in [2]; 3950 nM in test [7]; 9410 nM in test [8]; 10 nM in test [4]; 6 nM in [6].
As to `CCc1cccc2cc3[nH]ncc3c(-c3ncc4c(N5CCC[C@@](C)(O)C5)nc(OC[C@@]56CCCN5C[C@H](F)C6)nc4c3F)c12` [Example 473, (3R)-1-(7-(5-ethyl-1H-benzo[f]indazol-4-yl)-8-fluoro-2-(((2R,7aS)-2-fluorohexahydro-1H-pyrrolizin-7a-yl)methoxy)pyrido[4,3-d]pyrimidin-4-yl)-3-methylpiperidin-3-ol], the IC50 in test [9] was 8 nM; in test [2] it was 11 nM; in test [7] it was 320 nM; in test [8], 325 nM; in test [4], 14 nM; in [12], 10 nM. In addition, the half-inhibitory concentration (IC50) in test [14] stood at 9 nM; in [15] it was 9 nM; in test [6], 8 nM.
Take `CCc1c(F)ccc2cc(O)cc(-c3ncc4c(N5CCCn6nc(C(=O)NCCO)cc6C5)nc(OC[C@@]56CCCN5C[C@H](F)C6)nc4c3F)c12` [Example 506, 5-(7-(8-ethyl-7-fluoro-3-hydroxynaphthalen-1-yl)-8-fluoro-2-(((2R,7aS)-2-fluorotetrahydro-1H-pyrrolizin-7a(5H)-yl)methoxy)pyrido[4,3-d]pyrimidin-4-yl)-N-(2-hydroxyethyl)-5,6,7,8-tetrahydro-4H-pyrazolo[1,5-a][1,4]diazepine-2-carboxamide]: the IC50 in [1] was at least 10000 nM; in test [10] it was 8910 nM; in test [2], at most 2 nM; in test [11], 2220 nM; in [4] it was at most 2 nM; in test [13], at least 10000 nM. The values for the IC50 in test [5], in [16] and in [6] were 703 nM, 302 nM and at most 2 nM, respectively.
